According to patent publication US6339062B1, “Retroinverso polypeptides that mimic or inhibit thrombospondin activity” (Inkine Pharmaceutical Company, Inc., priority 1998, dated 2002):
Bridges are numbered along the chain shown (N, C = ends). Where no end group is shown, it is not given here. The star is where a group is joined. For = O=C*

Legend:
[1] = system: mouse B16-F10 melanoma cells; test: Direct adhesion to dried peptide (Example 31); assay type: cell-based; details: 10 μg of each peptide; one hour; FIG. 20
Description: Peptide effect on direct adhesion was tested by drying 10 μg of each peptide on the bottom of a 96well microtiter plate. Plates were blocked with BSA. Mouse B16-F10 melanoma cells (50,000) were plated in each well and allowed to attach for one hour. Non-adherent cells were aspirated out, plates rinsed, and adherent cells were fixed, stained, and counted. The error bars represent the standard deviation.

[2] = system: mouse B16-F10 melanoma cells; test: Boyden chamber assay, TSP-1 mediated invasion of collagen (Examples 29, 30); assay type: cell-based; details: for inhibition of TSP-1 mediated invasion: 500 μg/ml peptide top chamber, 20 μg/ml TSP-1 bottom chamber, 6 hours, FIG. 18
Description: Cell invasion was investigated by the Boyden Chamber Invasion Assay using the modified Boyden chamber. T. Frandsen et al., Fibrinolysis, 6: 71-76 (1992). Polycarbonate filters, 12 μm pore size, e.g., Millicell, Millipore Corporation, Bedford, Ma, were coated with 100 μg Type IV collagen (1 mg/ml 60% EtOH) and dried overnight at 25° C. Blind-well Boyden chambers are filled with 600 μl of serum-free media containing 0.1% BSA in the lower compartment, and the coated filters will be mounted in the chamber. Approximately 50,000 cells (tested to be greater than 95% viable) suspended in 400 μl of the same media will be placed in the upper chamber of the apparatus and allowed to settle onto the collagen-coated membrane. Varying concentrations of TSP-1 (0-150 nM) will be placed in the lower compartment and any neutralizing antibodies as well as peptides will be placed in the upper chamber. After an incubation period of about 3 to 6 hours at 37° C., the cells on the upper surface of the filter will be removed with a cotton swab. The filters are then fixed in 3% glutaraldehyde solution and stained with 0.5% crystal violet solution. Invasive cells adhering to the under-surface of the filter are counted using a phase contrast microscope (400×).
Using this assay, mouse B16-F10 melanoma cells (50,000) were plated on the collagen-coated disk of the Boyden chamber apparatus. The top chamber contained melanoma cells in the presence of 500 μg/ml of the TSP-1 derived peptide and the bottom chamber contained 20 μg/ml TSP-1. After 6 hours, cells traversing the collagen were counted as cells attached to the underside of the collagen-coated disk. Five representative fields per chamber in duplicate were counted. The data shown in FIG. 18 represents the average per field and the error bars represent the standard deviation. The scrambled peptide, Val-Cys-Thr-Gly-Ser-Cys (SEQ ID NO: 7), the irrelevant peptide, Ala-Ser-Val-Thr-Ala-Arg (SEQ ID NO: 38), buffer, and the d-amino acid Cys-Ser-Val-Thr-Cys-Gly (SEQ ID NO: 40) had no effect on invasion.
The experiments were performed as described for Example 29. […] In contrast, d-Cys-Ser-Val-Thr-Cys-Gly (SEQ ID NO: 40) had no effect.

[3] = system: MMP-9 production in BAE cells; test: TSP-1-stimulated endothelial MMP-9 production (Example 27); assay type: cell-based; details: for Relative MMP-9 Levels / % inhibition (MMP-9): with 15 μg/ml TSP-1; for inhibited MMP-9 production: at high doses
Description: BAE cells were treated with TSP-1 as described in Example 27. MMP-9 levels were quantitated from densitometry of the zymograms prepared from the BAE cell conditioned media. The control was 15 μg/ml TSP-1. All other treatments were performed in the presence of 15 μg/ml TSP-1.

[4] = system: mouse B16-F10 melanoma cells; test: Melanoma tumor cell metastasis, peptide i.v. (Example 21); assay type: in vivo, mice; details: 1 mg peptide i.v. shortly before or after tumor implantation; two weeks; FIG. 12
From the text: Mice were sacrificed two weeks later and lung tumors counted. Treatment groups consisted of five animals. The photograph of FIG. 12 depicts three lungs from each treatment group. The black spots are melanoma tumors. All metastasis experiments were repeated 2-3 times showing qualitatively similar results depicted in the bar graph of FIG. 12.

[5] = system: Mouse B16 F10 melanoma cells; test: Direct adhesion assay (Example 16); assay type: cell-based; details: absorbed compound 2 μg
Description: It is believed that thrombospondin acts in metastasis through its adhesive properties. An assay was developed, generally in accordance with the disclosure of Tuszynski et al., Anal. Bio., 184:189-91 (1990), which evaluates the ability of melanoma cells to adhere to the thrombospondin fragments or analogs of the invention. In this assay, wells of a 96-well microtiter dish (Costar, Cambridge, Mass.) were incubated for two to three hours with […] of a […] solution of various ligands in 20 mM NaCl, pH 7.3. Thrombospondin (purified by the method of Tuszynski et al., J. Biol. Chem., 260:12240-5 (1985), fibronectin (Sigma Chemical Co., Missouri) served as the positive control. Bovine serum albumin (BSA) (Sigma Chemical Co.) served as the negative control. Thrombospondin analogs of the invention p1, p5 and p6 were synthesized as described in Examples 1 through 3. Following peptide adhesion to the microtiter dish, the wells were aspirated, treated with 200 μl phosphate buffered saline (PBS) containing 1% BSA for 1 hour and then washed three more times with 200 μl PBS.
Mouse B16 F10 melanoma cells were grown and harvested during log phase of growth using standard procedures. The harvested cells were washed two times in serum-free Dulbecco's minimum essential medium (DMEM) (Flow Laboratories) and suspended in DMEM at a final concentration of 4×10^5 cells/ml. Of the cell suspension 100 μl was added to each well of the microtiter dish containing the various ligands and the dish incubated at 37° C. in a CO2 incubator for 1 hour. Nonadherent cells were removed by aspiration and the wells washed three times with 200 μl of PBS. The total cell-associated protein was determined by dissolving the attached cells directly in the microtiter wells with 200 μl of the Pierce BCA working solution (Pierce Chem. Co. Booklet No. 23225 (1987)). […] Plates were allowed to cool to room temperature, cover sheets were removed, and the absorbance of each well was determined at 562 nm with a microtiter plate reader (Biotek, Burlington, Vt.)

platelets = test: Direct platelet adhesion assay (Example 18); assay type: cell-based; details: wells treated with 50 μl of 40 μg/ml
Description: The number of adherent platelets was essentially determined as previously described (Tuszynski et al., Anal. Bio., supra). Briefly, 100 μl of 5×10^8 platelets/ml washed as previously described (Tuszynski, et al., Blood, 72:109-225 (1988)) were added to microtiter plates, the wells of which were treated with 50 μl of a 40 μg/ml peptide or protein solution (Hepes buffered saline, pH 7.4). Solutions were dried at room temperature after incubation in a fume hood for two hours. Wells were blocked for one hour with 1% BSA. Platelets (100 μl) were incubated in the wells for 30 minutes and non-adherent platelets were removed by aspiration. Wells were washed 3× with 200 μl of Hepes buffered saline, pH 7.4. The number of adherent platelets was determined by measuring the platelet-derived protein using the BCA protein assay.

[6] = system: melanoma cells on absorbed thrombospondin; test: Competitive assay, thrombospondin specific adhesion to melanoma cells (Example 17); assay type: cell-based, mouse
From the text: The direct adhesion assay of Example 16 was modified to measure the ability of the peptide compounds of the invention to compete with intact thrombospondin for adhesion to melanoma cells.
In this assay, intact thrombospondin is absorbed onto microtiter dishes as described in Example 16. […]

[7] = system: B16 F10 mouse melanoma cells; test: Antimetastatic activity in vivo (Example 20); parameters: species or system C57 black mice; details: 16 days
[8] = system: platelets on absorbed fibronectin (FN); test: Competitive platelet adhesion assay, absorbed fibronectin (Example 19); assay type: cell-based; details: 250 μg/ml; absorbed protein FN
Description: (§1) The direct adhesion assay of Example 18 was modified to measure the ability of the peptide compounds of the invention to compete with intact thrombospindin or fibronectin for adhesion of platelets.
(§2) In this assay, thrombospondin (TSP) or fibronectin (FN) was absorbed onto microtiter dish as described in Example 18. The assay was similar to Example 18 except that before platelets were added to the microtiter dishes they were preincubated with 250 μg/ml of various ligands.

[9] = system: platelets on absorbed thrombospondin (TSP); test: Competitive platelet adhesion assay, absorbed thrombospondin (Example 19); assay type: cell-based; details: 250 μg/ml; absorbed protein TSP
Description: as §1, §2

[10] = system: platelets (platelet-rich-plasma); test: Platelet aggregation assay in platelet-rich-plasma (Example 8); assay type: cell-based; details: in vitro; FIG. 22
Description: Platelet aggregation was monitored on a single-channel aggregometer equipped to measure luminescence (Chromo-Log, Havertown, Pa.). Platelet-rich-plasma (PRP) was obtained from whole blood anticoagulated with 0.38% sodium citrate by centrifugation at 150×g for 20 minutes.
0.5 ml aliquots of platelet-rich-plasma were aggregated by stirring with 2 uM ADP in the presence of various concentrations of Cys-Ser-Val-Thr-Cys-Gly (SEQ ID NO: 21) and Gly-Arg-Gly-Asp-Ser (SEQ ID NO: 36). Aggregation was measured at 37° as decrease in optical absorbance vs. time in a chrono-log aggregometer and is shown in FIG. 8. Peptides designated in each panel are represented by their amino acid sequence using the one letter amino acid code.

Substance: ASVTAR [irrelevant peptide]
- adhesion of cells to dried peptide [1]: did not promote adhesion
- inhibition of TSP-1 mediated invasion [2]: no effect
- Relative MMP-9 Levels ([3]; 0.20 mM): 0.78
- inhibited MMP-9 production [3]: no effects

Substance: Arg-Gly-Asp
- % inhibition (MMP-9) ([3]; 0.50 mM): 0%
- Relative MMP-9 Levels ([3]; 0.50 mM): 1.03
- inhibited MMP-9 production [3]: no effects

Substance: CSTSCG (cysteine pairing not given here)
- melanoma cell metastasis (lung tumors) [4]: significantly blocked

Substance: Cys-Ser-Val-Thr-Cys-Gly (disulfide linked) (CSVTCG; disulfide 1-5 (inferred)) [cyclic Cys-Ser-Val-Thr-Cys-Gly]
- melanoma cell metastasis (lung tumors) [4]: significantly blocked

Substance: Heparin
- % inhibition (MMP-9) ([3]; 50 μg/ml): 6%
- Relative MMP-9 Levels ([3]; 50 μg/ml): 0.94
- % inhibition (MMP-9) ([3]; 500 μg/ml): 55%
- Relative MMP-9 Levels ([3]; 500 μg/ml): 0.45
- % inhibition (MMP-9) ([3]; 1000 μg/ml): 50%
- Relative MMP-9 Levels ([3]; 1000 μg/ml): 0.50
- inhibited MMP-9 production [3]: 50%

Substance: Thrombospondin: purified thrombospondin, positive control [reference compound]
- Adhesion as % Thrombospondin [5]: 100%
- Adherence as % Control (adherent platelets) (platelets): 100%

Substance: Trp-Ser-Pro-Cys-Ser-Val-Thr-Cys-Gly-NH2 (WSPCSVTCG-NH2; cysteine pairing not given here) [p6]
- % of Buffer Control (melanoma cell adhesion to thrombospondin) ([6]; 200 μg/ml): 74%
- % of Buffer Control (melanoma cell adhesion to thrombospondin) ([6]; 300 μg/ml): 74%
- % buffer control (number of lung tumors) ([7]; 30 μg/mouse): 91%
- % buffer control (number of lung tumors) ([7]; 100 μg/mouse): 102%
- % buffer control (number of lung tumors) ([7]; 300 μg/mouse): 50%
- number of tumors compared with controls [7]: statistically fewer tumors than controls
- size of lung tumors [7]: smaller in size
- % Buffer Control (platelet adhesion) [8]: 96%
- % Buffer Control (platelet adhesion) [9]: 98%
- platelet aggregation [10]: inhibit platelet aggregation

Substance: VCTGSC (cysteine pairing not given here) [scrambled peptide control, reference compound]
- adhesion of cells to dried peptide [1]: did not promote adhesion
- inhibition of TSP-1 mediated invasion [2]: no effect

Substance: WSPCSVTCG (cysteine pairing not given here) [p1]
- % of Buffer Control (melanoma cell adhesion to thrombospondin) ([6]; 10 μg/ml): 49%
- % of Buffer Control (melanoma cell adhesion to thrombospondin) ([6]; 50 μg/ml): 40%
- % buffer control (number of lung tumors) ([7]; 30 μg/mouse): 49%
- number of tumors compared with controls [7]: statistically fewer tumors than controls
- size of lung tumors [7]: smaller in size
- Adherence as % Control (adherent platelets) (platelets): adhere to platelets
- Adherence as % Control (adherent platelets) (platelets; listed as P1): 39%
- platelet aggregation [10]: inhibit platelet aggregation

Substance: d-Gly-Cys-(Acm)-Thr-Val-Ser-Cys-(Acm)
- adhesion of cells to dried peptide [1]: half as well as fibronectin and TSP-1
- dose-dependent effect on melanoma cell invasion ([2]; FIG. 19): same dose-dependent inhibition

Substance: fTrp-Ser-Pro-Cys-Ser-Val-Thr-Cys-Gly-NH2 (For-WSPCSVTCG-NH2; cysteine pairing not given here) [p5]
- Adhesion as % Thrombospondin [5]: display adhesive properties
- Adhesion as % Thrombospondin ([5]; listed as P5): 79%
- % of Buffer Control (melanoma cell adhesion to thrombospondin) ([6]; 10 μg/ml): 99%
- % of Buffer Control (melanoma cell adhesion to thrombospondin) ([6]; 50 μg/ml): 104%
- % of Buffer Control (melanoma cell adhesion to thrombospondin) ([6]; 200 μg/ml): 89%
- % of Buffer Control (melanoma cell adhesion to thrombospondin) ([6]; 300 μg/ml): 83%
- % buffer control (number of lung tumors) ([7]; 30 μg/mouse): 87%
- number of tumors compared with controls [7]: statistically fewer tumors than controls
- % Buffer Control (platelet adhesion) [8]: 109%
- % Buffer Control (platelet adhesion) [9]: 107%
- platelet aggregation [10]: inhibit platelet aggregation

Substance: fibronectin [reference compound]
- Adherence as % Control (adherent platelets) (platelets): 83%
